The source made the active and inactive calls. The calls are words filed in the database; no cut-off is given here.
Key:
[1] = system: MCF7; assay: Antiproliferative activity against human MCF7 cells assessed as reduction in cell viability incubated for 96 hrs by MTT assay; conditions: MCF7, 96 h
[2] = system: MDA-MB-231; assay: Antiproliferative activity against human MDA-MB-231 cells assessed as reduction in cell viability incubated for 96 hrs by MTT assay; conditions: MDA-MB-231, 96 h
[3] = system: A549; assay: Antiproliferative activity against human A549 cells assessed as reduction in cell viability incubated for 96 hrs by MTT assay; conditions: A549, 96 h
[4] = system: MDA-MB-231; assay: Cell cycle arrest in human MDA-MB-231 cells assessed as S phase cells at 20 uM incubated for 24 hrs by PI staining based flow cytometric analysis (reference value: 28.7%); type: functional
[5] = system: MDA-MB-231; assay: Cell cycle arrest in human MDA-MB-231 cells assessed as G1 phase cells at 20 uM incubated for 48 hrs by PI staining based flow cytometric analysis (reference value: 56.7%); type: functional
[6] = system: MDA-MB-231; assay: Cell cycle arrest in human MDA-MB-231 cells assessed as G2 phase cells at 20 uM incubated for 48 hrs by PI staining based flow cytometric analysis (reference value: 14.6%); type: functional
[7] = system: MDA-MB-231; assay: Cell cycle arrest in human MDA-MB-231 cells assessed as G2 phase cells at 5 uM incubated for 48 hrs by PI staining based flow cytometric analysis (reference value: 7.3%); type: functional
[8] = system: MDA-MB-231; assay: Cell cycle arrest in human MDA-MB-231 cells assessed as S phase cells at 10 uM incubated for 48 hrs by PI staining based flow cytometric analysis (reference value: 16.0%); type: functional
[9] = system: MDA-MB-231; assay: Cell cycle arrest in human MDA-MB-231 cells assessed as G1 phase cells at 20 uM incubated for 48 hrs by PI staining based flow cytometric analysis (reference value: 76.7%); type: functional
[10] = system: MDA-MB-231; assay: Cell cycle arrest in human MDA-MB-231 cells assessed as G2 phase cells at 20 uM incubated for 48 hrs by PI staining based flow cytometric analysis (reference value: 7.3%); type: functional
[11] = system: MDA-MB-231; assay: Induction of autophagy in human MDA-MB-231 cells assessed as decrease in P62 expression level incubated for 48 hrs by Western blot analysis; type: functional, cell-based; conditions: dose 5-20 µM
[12] = system: MDA-MB-231; assay: Induction of autophagy in human MDA-MB-231 cells assessed as increase in beclin-1 expression level incubated for 48 hrs by Western blot analysis; type: functional, cell-based; conditions: dose 5-20 µM
[13] = system: MDA-MB-231; assay: Induction of apoptosis in human MDA-MB-231 cells assessed as early apoptotic cells at 2.5 uM incubated for 48 hrs by Annexin V-FITC/PI staining based flow cytometric analysis (reference value: 2.25 %); type: functional
[14] = system: MDA-MB-231; assay: Induction of apoptosis in human MDA-MB-231 cells assessed as necrotic cells at 10 uM incubated for 48 hrs by Annexin V-FITC/PI staining based flow cytometric analysis (reference value: 1.63%); type: functional
[15] = system: MDA-MB-231; assay: Induction of apoptosis in human MDA-MB-231 cells assessed as early apoptotic cells at 20 uM incubated for 48 hrs by Annexin V-FITC/PI staining based flow cytometric analysis (reference value: 2.25 %); type: functional
[16] = system: MDA-MB-231; assay: Induction of apoptosis in human MDA-MB-231 cells assessed as late apoptotic cells at 20 uM incubated for 48 hrs by Annexin V-FITC/PI staining based flow cytometric analysis (reference value: 1.06%); type: functional
[17] = system: MDA-MB-231; assay: Induction of autophagy in human MDA-MB-231 cells assessed as autophagic lysosomes at 10 uM incubated for 48 hrs by transmission electron microscopic analysis; type: functional, cell-based
[18] = system: 4T1; assay: Antitumor activity against mouse 4T1 cells implanted in female BALB/C mouse assessed as inhibition of tumor weight at 20 mg/kg, iv administered every two days for 21 days relative to control; type: functional, organism-based; conditions: time 21.0 day
[19] = system: 4T1; assay: Antitumor activity against mouse 4T1 cells implanted in female BALB/C mouse assessed as inhibition of tumor weight at 20 mg/kg, po administered every two days for 21 days relative to control; type: functional, organism-based; conditions: time 21.0 day
[20] = Toxicity in female BALB/C mouse implanted with mouse 4T1 cells assessed as effect on body weight at 20 to 50 mg/kg, po administered every two days for 21 days; type: organism-based; conditions: in vivo, 504 h, dose 20-50 mg/kg, time 21 day
[21] = Toxicity in female BALB/C mouse implanted with mouse 4T1 cells assessed as effect on body weight at 20 to 50 mg/kg, iv administered every two days for 21 days; type: organism-based; conditions: in vivo, 504 h, dose 20-50 mg/kg, time 21 day
[22] = Toxicity in female BALB/C mouse implanted with mouse 4T1 cells assessed as heart damage at 20 to 50 mg/kg, iv administered every two days for 21 days by H and E staining based analysis; type: organism-based; conditions: in vivo, 504 h, dose 20-50 mg/kg, time 21 day
[23] = Toxicity in female BALB/C mouse implanted with mouse 4T1 cells assessed as spleen damage at 20 to 50 mg/kg, iv administered every two days for 21 days by H and E staining based analysis; type: organism-based; conditions: in vivo, 504 h, dose 20-50 mg/kg, time 21 day
[24] = Toxicity in female BALB/C mouse implanted with mouse 4T1 cells assessed as lung damage at 20 to 50 mg/kg, iv administered every two days for 21 days by H and E staining based analysis; type: organism-based; conditions: in vivo, 504 h, dose 20-50 mg/kg, time 21 day
[25] = Toxicity in female BALB/C mouse implanted with mouse 4T1 cells assessed as heart damage at 20 to 50 mg/kg, po administered every two days for 21 days by H and E staining based analysis; type: organism-based; conditions: in vivo, 504 h, dose 20-50 mg/kg, time 21 day
[26] = Toxicity in female BALB/C mouse implanted with mouse 4T1 cells assessed as liver damage at 20 to 50 mg/kg, po administered every two days for 21 days by H and E staining based analysis; type: organism-based; conditions: in vivo, 504 h, dose 20-50 mg/kg, time 21 day
[27] = Toxicity in female BALB/C mouse implanted with mouse 4T1 cells assessed as spleen damage at 20 to 50 mg/kg, po administered every two days for 21 days by H and E staining based analysis; type: organism-based; conditions: in vivo, 504 h, dose 20-50 mg/kg, time 21 day
[28] = Toxicity in female BALB/C mouse implanted with mouse 4T1 cells assessed as change in serum BUN level at 20 to 50 mg/kg, po administered every two days for 21 days; type: organism-based; conditions: in vivo, 504 h, dose 20-50 mg/kg, time 21 day
[29] = Toxicity in female BALB/C mouse implanted with mouse 4T1 cells assessed as change in serum CREA level at 20 to 50 mg/kg, po administered every two days for 21 days; type: organism-based; conditions: in vivo, 504 h, dose 20-50 mg/kg, time 21 day
[30] = Toxicity in female BALB/C mouse implanted with mouse 4T1 cells assessed as change in serum AST level at 20 to 50 mg/kg, iv administered every two days for 21 days; type: organism-based; conditions: in vivo, 504 h, dose 20-50 mg/kg, time 21 day
[31] = Toxicity in female BALB/C mouse implanted with mouse 4T1 cells assessed as change in serum LDH level at 20 to 50 mg/kg, iv administered every two days for 21 days; type: organism-based; conditions: in vivo, 504 h, dose 20-50 mg/kg, time 21 day
[32] = Toxicity in female BALB/C mouse implanted with mouse 4T1 cells assessed as change in number of platelets at 20 to 50 mg/kg, po administered every two days for 21 days by routine blood analysis; type: organism-based; conditions: in vivo, 504 h, dose 20-50 mg/kg, time 21 day
[33] = Toxicity in female BALB/C mouse implanted with mouse 4T1 cells assessed as effect on lymphocytes at 20 to 50 mg/kg, iv administered every two days for 21 days by routine blood analysis; type: organism-based; conditions: in vivo, 504 h, dose 20-50 mg/kg, time 21 day
[34] = Toxicity in female BALB/C mouse implanted with mouse 4T1 cells assessed as effect on monocytes at 20 to 50 mg/kg, iv administered every two days for 21 days by routine blood analysis; type: organism-based; conditions: in vivo, 504 h, dose 20-50 mg/kg, time 21 day
[35] = Toxicity in female BALB/C mouse implanted with mouse 4T1 cells assessed as effect on neutrophils at 20 to 50 mg/kg, iv administered every two days for 21 days by routine blood analysis; type: organism-based; conditions: in vivo, 504 h, dose 20-50 mg/kg, time 21 day

- IC50 [1]: 3.27 µM
- IC50 [2]: 1430 nM
- IC50 [3]: 6.47 µM
SMILES: CCC(=O)NC(n1cnc2c(Nc3cc(OC)c(OC)c(OC)c3)nc(N)nc21)C(Cl)(Cl)Cl (stereo not given)
- Activity [4]: 27.6%
- Activity [5]: 41%
- Activity [6]: 45.7%
- Activity [7]: 8.6%
- Activity [8]: 11.9%
- Activity [9]: 59%
- Activity [10]: 29.4%
- Activity [11]: Dose-Dependent Effect
- Activity [12]: Dose-Dependent Effect
- Activity [13]: 1.34%
- Activity [14]: 1.14%
- Activity [15]: 5.41%
- Activity [16]: 1.96%
- Activity [17]: Active
- Activity [18]: inactive
- Activity [19]: inactive
- Activity [20]: Non-Toxic
- Activity [21]: Non-Toxic
- Activity [22]: Non-Toxic
- Activity [23]: Non-Toxic
- Activity [24]: Non-Toxic
- Activity [25]: Non-Toxic
- Activity [26]: Non-Toxic
- Activity [27]: Non-Toxic
- Activity [28]: Non-Toxic
- Activity [29]: Non-Toxic
- Activity [30]: Non-Toxic
- Activity [31]: Non-Toxic
- Activity [32]: Non-Toxic
- Activity [33]: Non-Toxic
- Activity [34]: Non-Toxic
- Activity [35]: Non-Toxic

— ChEMBL document CHEMBL5505975, “Design, synthesis and biological evaluation of CDC20 inhibitors for treatment of triple-negative breast cancer” (Eur J Med Chem, 2024)
